Measured values reported in ChEMBL document CHEMBL1629708, “Discovery of dihydrothieno- and dihydrofuropyrimidines as potent pan Akt inhibitors” (Bioorg Med Chem Lett, 2010).

Experiments:
[1] = biological target: T1, RAC-alpha serine/threonine-protein kinase (Homo sapiens, UniProt P31749); assay: Inhibition of Akt in human LNCaP cell assessed as inhibition of PRAS40 phosphorylation; format: cell-based
[2] = Inhibition of PKA
[3] = biological target: T1, RAC-alpha serine/threonine-protein kinase; assay: Inhibition of Akt1
[4] = biological target: Protein kinase C eta type (Homo sapiens) (UniProt P24723); assay: Inhibition of PKCeta at 1 uM
[5] = biological target: Ribosomal protein S6 kinase beta-1 (Homo sapiens) (UniProt P23443); assay: Inhibition of p70S6K at 1 uM
[6] = Inhibition of PKA at 1 uM
[7] = Ratio of IC50 for Akt1 to IC50 for Akt2
[8] = Plasma concentration in rat at 50 mg/kg, po; format: ADME, organism-based; set-up: dose 50 mg/kg, route oral
[9] = Bioavailability in rat at 50 mg/kg, po; format: ADME, organism-based; conditions: in vivo
Plasma [10] = assay: Increase in plasma drug level in nude mouse xenografted with human U87 cells at 50 to 100 mg/kg, po after 4 hrs; format: ADME, organism-based, U-87MG ATCC; set-up: dose 50-100 mg/kg, route oral; conditions: in vivo
PC-3 [11] = assay: Antitumor activity against human PC3 prostate tumor cell xenografted in nude mouse assessed as inhibition of tumor growth at 25 mg/kg, po qd for 14 days; format: functional; set-up: scale not given: the % may be the effect or the level left
[12] = Clearance in rat at 5 mg/kg, iv; format: ADME, organism-based; set-up: dose 5 mg/kg, route intravenous; conditions: in vivo
PC-3 [13] = assay: Antitumor activity against human PC3 prostate tumor cell xenografted in nude mouse assessed as inhibition of tumor growth at 50 mg/kg, po qd for 14 days; format: functional; set-up: scale not given: the % may be the effect or the level left
[14] = Inhibition of PRAS40 phosphorylation in human U87 cells xenografted in mouse at 200 mg/kg, po after 4 hrs; format: functional, U-87MG ATCC; conditions: U-87 MG
PC-3 [15] = assay: Antitumor activity against human PC3 prostate tumor cell xenografted in nude mouse assessed as inhibition of tumor growth at 200 mg/kg, po qd for 14 days; format: functional; set-up: scale not given: the % may be the effect or the level left
Plasma [16] = assay: Increase in plasma drug level in nude mouse xenografted with human U87 cells at 200 mg/kg, po after 4 hrs; format: ADME, organism-based, U-87MG ATCC; set-up: dose 200 mg/kg, route oral; conditions: in vivo
Plasma [17] = assay: Increase in plasma drug level in nude mouse xenografted with human U87 cells at 50 to 100 mg/kg, po after 1 hr; format: ADME, organism-based, U-87MG ATCC; set-up: dose 50-100 mg/kg, route oral; conditions: in vivo
PC-3 [18] = assay: Antitumor activity against human PC3 prostate tumor cell xenografted in nude mouse assessed as inhibition of tumor growth at 100 mg/kg, po qd for 14 days; format: functional; conditions: PC-3, 336 h
[19] = Inhibition of PRAS40 phosphorylation in human U87 cells xenografted in mouse at 50 mg/kg, po after 1 hr; format: functional, U-87MG ATCC; conditions: U-87 MG
[20] = Plasma protein binding in rat; format: ADME, cell-free; conditions: read-out: PPB (converted)
[21] = Inhibition of PRAS40 phosphorylation in human U87 cells xenografted in mouse at 50 mg/kg, po after 4 hr; format: functional, U-87MG ATCC; conditions: U-87 MG
[22] = Inhibition of PRAS40 phosphorylation in human U87 cells xenografted in mouse at 200 mg/kg, po after 12 hrs; format: functional, U-87MG ATCC; conditions: U-87 MG
Plasma [23] = assay: Increase in plasma drug level in nude mouse xenografted with human U87 cells at 200 mg/kg, po after 1 hr; format: ADME, organism-based, U-87MG ATCC; set-up: dose 200 mg/kg, route oral; conditions: in vivo
[24] = Ratio of IC50 for Akt1 to IC50 for Akt3

T1 sequence (P31749 whole entry): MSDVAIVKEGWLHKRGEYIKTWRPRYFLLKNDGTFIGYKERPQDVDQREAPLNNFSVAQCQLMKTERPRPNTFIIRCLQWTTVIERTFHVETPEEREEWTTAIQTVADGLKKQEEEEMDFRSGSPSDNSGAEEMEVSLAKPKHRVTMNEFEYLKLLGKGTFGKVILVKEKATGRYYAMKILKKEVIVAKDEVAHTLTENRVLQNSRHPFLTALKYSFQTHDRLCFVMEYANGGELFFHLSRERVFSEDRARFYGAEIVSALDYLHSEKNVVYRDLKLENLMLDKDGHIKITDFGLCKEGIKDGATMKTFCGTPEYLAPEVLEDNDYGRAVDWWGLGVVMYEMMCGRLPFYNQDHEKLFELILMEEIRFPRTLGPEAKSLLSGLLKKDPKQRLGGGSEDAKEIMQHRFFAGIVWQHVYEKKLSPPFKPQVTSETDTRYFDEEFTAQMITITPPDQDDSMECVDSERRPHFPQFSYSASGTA
Sequence of Ribosomal protein S6 kinase beta-1 (Homo sapiens) (P23443 whole entry, looked up): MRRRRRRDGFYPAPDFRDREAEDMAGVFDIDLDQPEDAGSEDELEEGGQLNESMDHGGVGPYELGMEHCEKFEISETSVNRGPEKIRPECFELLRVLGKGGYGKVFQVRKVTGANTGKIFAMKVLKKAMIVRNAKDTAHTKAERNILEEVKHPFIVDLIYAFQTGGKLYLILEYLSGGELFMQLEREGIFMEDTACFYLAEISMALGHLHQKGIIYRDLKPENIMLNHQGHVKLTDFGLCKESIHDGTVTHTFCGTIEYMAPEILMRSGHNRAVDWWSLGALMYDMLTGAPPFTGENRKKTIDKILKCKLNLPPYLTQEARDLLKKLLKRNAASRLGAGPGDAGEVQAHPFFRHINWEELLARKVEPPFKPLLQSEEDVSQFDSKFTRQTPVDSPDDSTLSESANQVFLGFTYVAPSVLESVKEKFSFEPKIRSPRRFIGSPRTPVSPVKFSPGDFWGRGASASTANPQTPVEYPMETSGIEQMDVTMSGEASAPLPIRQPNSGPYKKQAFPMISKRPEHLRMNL
Sequence of Protein kinase C eta type (Homo sapiens) (P24723 whole entry): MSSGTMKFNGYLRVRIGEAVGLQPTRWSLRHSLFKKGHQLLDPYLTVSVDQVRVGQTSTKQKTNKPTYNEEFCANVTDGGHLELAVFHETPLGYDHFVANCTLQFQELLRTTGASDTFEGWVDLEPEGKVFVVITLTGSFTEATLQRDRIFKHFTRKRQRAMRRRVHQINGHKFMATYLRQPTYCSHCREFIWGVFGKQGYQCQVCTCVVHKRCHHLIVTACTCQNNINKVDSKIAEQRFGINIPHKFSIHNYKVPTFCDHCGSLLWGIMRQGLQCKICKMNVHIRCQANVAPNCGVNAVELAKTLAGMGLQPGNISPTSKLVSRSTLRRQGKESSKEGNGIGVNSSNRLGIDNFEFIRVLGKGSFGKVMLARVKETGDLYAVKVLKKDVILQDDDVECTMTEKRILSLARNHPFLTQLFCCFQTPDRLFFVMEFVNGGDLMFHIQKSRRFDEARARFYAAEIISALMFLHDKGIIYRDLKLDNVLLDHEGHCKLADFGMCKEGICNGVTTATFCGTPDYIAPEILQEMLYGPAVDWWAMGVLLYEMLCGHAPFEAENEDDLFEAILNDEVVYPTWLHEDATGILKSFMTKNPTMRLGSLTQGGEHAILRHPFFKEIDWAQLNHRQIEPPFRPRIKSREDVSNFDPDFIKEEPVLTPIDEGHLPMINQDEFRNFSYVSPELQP

Structure (SMILES): Cc1ccc(CC(CNC(C)C)C(=O)N2CCN(c3ncnc4c3[C@H](C)SC4)CC2)cc1 (stereo partly specified)
- IC50 [1]: 216 nM
- IC50 [2]: 101 nM
- IC50 [3]: 3 nM

Structure (SMILES): CC(C)NC[C@@H](Cc1ccc(Cl)cc1)C(=O)N1CCN(c2ncnc3c2[C@H](C)SC3)CC1
- IC50 [2]: 5620 nM
- IC50 [3]: 127 nM

Structure (SMILES): C[C@@H]1SCc2ncnc(N3CCN(C(=O)[C@H](N)Cc4ccc(F)c(F)c4)CC3)c21
- IC50 [1]: 602 nM
- IC50 [2]: 30 nM
- IC50 [3]: 4 nM

Structure (SMILES): C[C@@H]1SCc2ncnc(N3CCN(C(=O)[C@H](N)Cc4ccc(Cl)c(F)c4)CC3)c21
- IC50 [1]: 176 nM
- IC50 [2]: 8 nM
- IC50 [3]: 2 nM

Structure (SMILES): CC(C)NCC(Cc1ccc(Cl)cc1)C(=O)N1CCN(c2ncnc3c2[C@H](C)SC3)CC1 (stereo partly specified)
- inhibition [4]: > 50%
- IC50 [1]: 159 nM
- IC50 [2]: 80 nM
- inhibition [5]: > 50%
- inhibition [6]: > 50%
- IC50 [3]: 3 nM

Structure (SMILES): C[C@H]1SCc2ncnc(N3CCN(C(=O)[C@H](N)Cc4ccc(Cl)cc4)CC3)c21
- IC50 [1]: 18500 nM
- IC50 [2]: 1710 nM
- IC50 [3]: 260 nM

Structure (SMILES): C[C@@H]1SCc2ncnc(N3CCN(C(=O)C(Cc4ccc(Cl)cc4)CC(C)(C)N)CC3)c21 (stereo partly specified)
- IC50 [1]: 438 nM
- IC50 [2]: 73 nM
- IC50 [3]: 6 nM

Structure (SMILES): N[C@H](Cc1ccc(Cl)cc1)C(=O)N1CCN(c2ncnc3c2CSC3)CC1
- IC50 [1]: 3850 nM
- IC50 [2]: 223 nM
- IC50 [3]: 22 nM

Structure (SMILES): C[C@@H]1SCc2ncnc(N3CCN(C(=O)[C@H](N)Cc4ccc(F)cc4)CC3)c21
- IC50 [1]: 1590 nM
- IC50 [2]: 104 nM
- IC50 [3]: 11 nM

Structure (SMILES): C[C@@H]1SCc2ncnc(N3CCN(C(=O)C(Cc4ccc(Cl)cc4)C4(N)CC4)CC3)c21 (stereo partly specified)
- IC50 [1]: 2470 nM
- IC50 [2]: 308 nM
- IC50 [3]: 42 nM

Structure (SMILES): C[C@@H]1SCc2ncnc(N3CCN(C(=O)[C@H](N)Cc4c[nH]c5ccccc45)CC3)c21
- IC50 [1]: 3630 nM

Structure (SMILES): CC(C)NCC(C(=O)N1CCN(c2ncnc3c2C(C)SC3)CC1)c1ccc(Cl)cc1 (stereo unspecified)
- Ratio IC50 [7]: 5

Structure (SMILES): C[C@@H]1SCc2ncnc(N3CCN(C(=O)C(Cc4ccc(Cl)c(F)c4)CC4(N)CC4)CC3)c21 (stereo partly specified)
- IC50 [1]: 250 nM
- IC50 [2]: 30 nM
- IC50 [3]: 3 nM

Structure (SMILES): CCC1SCc2ncnc(N3CCN(C(=O)[C@H](N)Cc4ccc(Cl)cc4)CC3)c21 (stereo partly specified)
- IC50 [1]: 1200 nM
- IC50 [2]: 52 nM
- IC50 [3]: 7 nM

Structure (SMILES): C[C@@H]1SCc2ncnc(N3CCN(C(=O)C(Cc4ccc(Cl)cc4)CN4CCCC4)CC3)c21 (stereo partly specified)
- IC50 [1]: 178 nM
- IC50 [2]: 75 nM
- IC50 [3]: 3 nM

Structure (SMILES): CC(C)NC[C@H](Cc1ccc(Cl)cc1)C(=O)N1CCN(c2ncnc3c2[C@H](C)OC3)CC1
- inhibition [4]: > 50%
- IC50 [1]: 125 nM
- IC50 [2]: 52 nM
- inhibition [5]: > 50%
- inhibition [6]: > 50%
- IC50 [3]: 3 nM

Structure (SMILES): C[C@@H]1OCc2ncnc(N3CCN(C(=O)[C@H](N)Cc4ccc(Cl)cc4)CC3)c21
- IC50 [1]: 615 nM
- IC50 [2]: 61 nM
- IC50 [3]: 7 nM

Structure (SMILES): CC(C)NCC(Cc1ccc(Cl)c(F)c1)C(=O)N1CCN(c2ncnc3c2[C@H](C)SC3)CC1 (stereo partly specified)
- IC50 [1]: 92 nM
- IC50 [2]: 30 nM
- IC50 [3]: 2 nM

Structure (SMILES): CC(C)NC[C@H](Cc1ccc(Cl)cc1)C(=O)N1CCN(c2ncnc3c2[C@H](C)SC3)CC1
- AUC [8]: 56200 ng·h/mL
- bioavailability [9]: > 100%
- Activity (Plasma [10]): Active
- Activity (PC-3 [11]): 15%
- clearance [12]: 94 mL/min/kg
- IC50 [1]: 137 nM
- Activity (PC-3 [13]): 42%
- inhibition in vivo at 200 mg/kg [14]: 83%
- Activity (PC-3 [15]): 84%
- Activity (Plasma [16]): Active
- Activity (Plasma [17]): Active
- inhibition in vivo at 100 mg/kg (PC-3 [18]): 61%
- inhibition in vivo at 50 mg/kg [19]: 85%
- IC50 [2]: 35 nM
- fraction unbound [20]: 0.3
- IC50 [3]: 1 nM
- inhibition in vivo at 50 mg/kg [21]: 60%
- inhibition in vivo at 200 mg/kg [22]: 65%
- Activity (Plasma [23]): Active

Structure (SMILES): Cc1c[nH]c2ncnc(N3CCN(C(=O)[C@H](N)Cc4ccc(F)cc4)CC3)c12
- IC50 [1]: 160 nM
- IC50 [2]: 6 nM

Structure (SMILES): CC(C)NCC(Cc1ccc(F)c(F)c1)C(=O)N1CCN(c2ncnc3c2[C@H](C)SC3)CC1 (stereo partly specified)
- IC50 [1]: 759 nM
- IC50 [2]: 285 nM
- IC50 [3]: 10 nM

Structure (SMILES): C[C@@H]1SCc2ncnc(N3CCN(C(=O)C(Cc4ccc(Cl)c(F)c4)CC(C)(C)N)CC3)c21 (stereo partly specified)
- IC50 [1]: 587 nM
- IC50 [2]: 63 nM
- IC50 [3]: 7 nM

Structure (SMILES): CC1SCc2ncnc(N3CCN(C(=O)[C@H](N)Cc4ccc(Cl)cc4)CC3)c21 (stereo partly specified)
- IC50 [1]: 310 nM
- IC50 [2]: 31 nM
- IC50 [3]: 4 nM

Structure (SMILES): C[C@@H]1SCc2ncnc(N3CCN(C(=O)[C@H](N)Cc4ccc(Cl)cc4)CC3)c21
- IC50 [1]: 184 nM
- IC50 [2]: 13 nM
- IC50 [3]: 1 nM

Structure (SMILES): N[C@H](Cc1ccc(Cl)cc1)C(=O)N1CCN(c2ncnc3c2CS(=O)(=O)C3)CC1
- IC50 [1]: 21000 nM
- IC50 [2]: 1300 nM
- IC50 [3]: 52 nM

Structure (SMILES): CC(C)NCC(Cc1ccc(Cl)c(F)c1)C(=O)N1CCN(c2ncnc3c2[C@H](C)OC3)CC1 (stereo partly specified)
- IC50 [1]: 315 nM
- IC50 [2]: 88 nM
- IC50 [3]: 6 nM

Structure (SMILES): Cc1ccc(CC(CNC(C)C)C(=O)N2CCN(c3ncnc4c3[C@H](C)OC4)CC2)cc1 (stereo partly specified)
- IC50 [1]: 995 nM
- IC50 [2]: 315 nM
- IC50 [3]: 16 nM

Structure (SMILES): CC(C)NCC(C(=O)N1CCN(c2ncnc3c2C(C)OC3)CC1)c1ccc(Cl)cc1 (stereo unspecified)
- Ratio IC50 [24]: 3

Structure (SMILES): C[C@@H]1OCc2ncnc(N3CCN(C(=O)C(Cc4ccc(Cl)c(F)c4)CC(C)(C)N)CC3)c21 (stereo partly specified)
- IC50 [1]: 592 nM
- IC50 [2]: 91 nM
- IC50 [3]: 18 nM
